Test results from patent US10058534B2, “Benzothiophene derivatives and compositions thereof as selective estrogen receptor degraders” (NOVARTIS AG, priority 2013, dated 2018).
Where two headings read alike, the source gives them in different places.

Experiments:
[1] = target: ER (endogenous, MCF7 cells) (Homo sapiens (Human), UniProt P03372); experiment: ER transcription assay (MCF7 cells), ERE-luciferase reporter; type: cell-based
Text: ER Transcription Assay (MCF7 Cells)
The ER transcription assay is a reporter assay that is based on the ability of ER to induce transcription from a luciferase reporter gene containing estrogen response elements (EREs) in the promoter/enhancer region. When the reporter gene is transfected in MCF7 cells (containing endogenous ER), transcription is reflected by the level of luciferase expression.
A day before transfection, cells are split into a T75 flask at a cell density of 300,000 cells/mL (10 mL total) and allowed to attach overnight in a humidified CO2 incubator at 37° C.
Approximately 20 ug DNA is mixed in OptiMEM (Invitrogen) to a total volume of 650 μL. Following incubation, the OptiMEM-DNA mixture is added to the OptiMEM-Lipofectin mix and incubated for 15 minutes at 37° C. The DNA-Lipofectin mixture is then added directly to the T75 flask and the flask is returned to the incubator.
Normally, DMSO (used as a vehicle) is included to achieve a final concentration of 0.1% when added to the cells. Transfected cells are trypsinized, resuspended in DMEM/F12/10% charcoal-stripped serum and added to the 96-well plate at 25,000 cells/well in 90 μL of media. The plate is then returned to the incubator for 24 hours.
After incubation with compounds for 24 hours, Firefly and Renilla luciferase activities are measured to determine ER transcriptional activity. Media is removed from 96-well plates by decanting and blotting on paper towels.
One second total read time after a one second delay.
One second total read time after one second delay. If Firefly luciferase signal is high, Renilla assay must be done an hour after the Firefly assay due to incomplete squelching of Firefly signal.
(§1) The column titled MCF7 IC50 reports the inflection point of the inhibition of transcription in MCF7 cells as described above. Percentage ERα remaining reports the remaining ERα protein measured at 10 μM concentration of the ligand as described above. The column ERα IC50 reports the inflection point of the degradation in response to the ligand concentration.

ERα = ERα (Homo sapiens (Human), UniProt P03372); experiment: ERα degradation (MCF7 cells), in-cell Western; type: cell-based; conditions: for IC50: inflection point of the degradation in response to ligand concentration; for IC50 / % ERα remaining: MCF7 cells; for % ERα remaining: remaining ERα protein at 10 μM ligand, relative to DMSO control; for ER Percentage remaining: degradation potential, comparison of linker length between phenyl and -C(O)OH
Chain of ERα (P03372 whole entry): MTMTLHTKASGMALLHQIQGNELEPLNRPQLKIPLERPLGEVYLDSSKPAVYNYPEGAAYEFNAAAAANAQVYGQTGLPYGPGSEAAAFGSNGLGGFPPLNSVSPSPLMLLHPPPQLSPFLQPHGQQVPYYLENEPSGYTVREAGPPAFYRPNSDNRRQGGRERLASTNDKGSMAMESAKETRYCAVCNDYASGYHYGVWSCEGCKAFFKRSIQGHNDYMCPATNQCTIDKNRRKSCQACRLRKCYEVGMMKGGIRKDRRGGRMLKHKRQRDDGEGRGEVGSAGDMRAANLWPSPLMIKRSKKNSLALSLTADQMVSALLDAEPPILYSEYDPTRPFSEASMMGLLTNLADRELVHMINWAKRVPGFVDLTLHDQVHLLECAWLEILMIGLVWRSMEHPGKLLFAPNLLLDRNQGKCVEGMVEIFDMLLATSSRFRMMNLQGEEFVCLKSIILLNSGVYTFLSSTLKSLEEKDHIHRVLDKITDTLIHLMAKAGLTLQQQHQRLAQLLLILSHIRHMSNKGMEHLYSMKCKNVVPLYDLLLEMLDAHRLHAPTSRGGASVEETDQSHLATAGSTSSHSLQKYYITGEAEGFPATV
Procedure: ERα Degradation (MCF7 Cells)
as §1

[2] = inflection point of the inhibition of transcription in MCF7 cells, 0.1 nM estradiol, 24 hours, read-out: MCF7 IC50
[3] = antagonist activity, comparison of linker length between phenyl and -C(O)OH, read-out: SERD IC50 MCF7

Chain of ER (endogenous, MCF7 cells) (P03372 whole entry): as above

| SMILES | IC50 [1, 2] [nM] | IC50 (ERα) [nM] | % ERα remaining (ERα) [%] | IC50 [1, 3] [nM] | ER Percentage remaining (ERα) [Percentage] |
| --- | --- | --- | --- | --- | --- |
| O=C(O)/C=C/c1ccc(Oc2c(-c3ccccc3C3CC3)sc3cc(O)ccc23)cc1 [Example 127, (E)-3-(4-((2-(2-cyclopropylphenyl)-6-hydroxybenzo[b]thiophen-3-yl)oxy)phenyl)acrylic acid] | 208 | 4.2 | 16 | – | – |
| COc1ccc(-c2sc3cc(O)ccc3c2Oc2ccc(/C=C/C(=O)O)cc2)c(C)n1 [Example 129, (E)-3-(4-((6-hydroxy-2-(6-methoxy-2-methylpyridin-3-yl)benzo[b]thiophen-3-yl)oxy)phenyl)acrylic acid] | 297 | – | 22 | – | – |
| Cc1occc1-c1sc2cc(O)ccc2c1Oc1ccc(/C=C/C(=O)O)cc1 [Example 131, (E)-3-(4-((6-hydroxy-2-(2-methylfuran-3-yl)benzo[b]thiophen-3-yl)oxy)phenyl)acrylic acid] | 815 | – | 12 | – | – |
| C#Cc1ccccc1-c1sc2cc(O)ccc2c1Oc1ccc(/C=C/C(=O)O)cc1 [Example 132, (E)-3-(4-((2-(2-ethynylphenyl)-6-hydroxybenzo[b]thiophen-3-yl)oxy)phenyl)acrylic acid] | 890 | – | 16 | – | – |
| Cn1ccc2c(-c3sc4cc(O)ccc4c3Oc3ccc(/C=C/C(=O)O)cc3)cccc21 [Example 133, (E)-3-(4-((6-hydroxy-2-(1-methyl-1H-indol-4-yl)benzo[b]thiophen-3-yl)oxy)phenyl)acrylic acid] | 898 | – | 17 | – | – |
| COc1ccc(-c2sc3cc(O)ccc3c2Oc2ccc(/C=C/C(=O)O)cc2)c(C(C)C)c1 [Example 134, (E)-3-(4-((6-hydroxy-2-(2-isopropyl-4-methoxyphenyl)benzo [b]thiophen-3-yl)oxy)phenyl)acrylic acid] | 380 | 403 | 12 | – | – |
| CC(C)c1ccccc1-c1sc2cc(OC(=O)C(C)(C)C)ccc2c1Oc1ccc(/C=C/C(=O)O)cc1 [Example 135, (E)-3-(4-((2-(2-isopropylphenyl)-6-(pivaloyloxy)benzo[b]thiophen-3-yl)oxy)phenyl)acrylic acid] | 61 | – | 19 | – | – |
| CCC(=O)Oc1ccc2c(Oc3ccc(/C=C/C(=O)O)cc3)c(-c3ccccc3C(C)C)sc2c1 [Example 136, (E)-3-(4-((2-(2-isopropylphenyl)-6-(propionyloxy)benzo[b]thiophen-3-yl)oxy)phenyl)acrylic acid] | 5.1 | – | 11 | – | – |
| CCOC(=O)/C=C/c1ccc(Oc2c(-c3ccccc3C(C)C)sc3cc(O)ccc23)cc1 [Example 137, (E)-ethyl 3-(4-((6-hydroxy-2-(2-isopropylphenyl)benzo [b]thiophen-3-yl)oxy)phenyl)acrylate] | 9 | – | 15 | – | – |
| CC(C)c1ccccc1-c1sc2cc(O)ccc2c1Oc1ccc(/C=C/C(=O)OCCN2CCOCC2)cc1 [Example 138, (E)-2-morpholinoethyl 3-(4-((6-hydroxy-2-(2-isopropylphenyl)benzo [b]thiophen-3-yl)oxy)phenyl)acrylate] | 5.8 | – | 24 | – | – |
| O=C(O)c1ccc(Oc2c(-c3ccc(O)cc3)sc3cc(O)ccc23)cc1 [reference compound] | – | – | – | 10000 | 57 |
| O=C(O)CCCc1ccc(Oc2c(-c3ccc(O)cc3)sc3cc(O)ccc23)cc1 [reference compound] | – | – | – | 10000 | 55 |
